In patent US20100179188A1, “NITROXIDE RADICAL AS TREATMENT FOR NEURODEGENERATION” (Office of Technology Transfer, NIH, priority 2007, published 2010):

Experiments:
cytosolic aconitase = target: T1, cytosolic aconitase (Mus musculus, UniProt P28271); assay: In-gel aconitase assay in mouse embryonic fibroblast lysates, cytosolic aconitase; type: cell-based; conditions: assessed 8 hours after removal; mouse embryonic fibroblasts treated 16 hours
T1 construct: Embryonic fibroblasts of 13-day old embryos were isolated from wild type, IRP1−/− mice and IRP2−/− mice; endogenous in cells; host or cells: mouse embryonic fibroblasts (wild type and IRP2−/−)
T1 sequence (P28271 1-889): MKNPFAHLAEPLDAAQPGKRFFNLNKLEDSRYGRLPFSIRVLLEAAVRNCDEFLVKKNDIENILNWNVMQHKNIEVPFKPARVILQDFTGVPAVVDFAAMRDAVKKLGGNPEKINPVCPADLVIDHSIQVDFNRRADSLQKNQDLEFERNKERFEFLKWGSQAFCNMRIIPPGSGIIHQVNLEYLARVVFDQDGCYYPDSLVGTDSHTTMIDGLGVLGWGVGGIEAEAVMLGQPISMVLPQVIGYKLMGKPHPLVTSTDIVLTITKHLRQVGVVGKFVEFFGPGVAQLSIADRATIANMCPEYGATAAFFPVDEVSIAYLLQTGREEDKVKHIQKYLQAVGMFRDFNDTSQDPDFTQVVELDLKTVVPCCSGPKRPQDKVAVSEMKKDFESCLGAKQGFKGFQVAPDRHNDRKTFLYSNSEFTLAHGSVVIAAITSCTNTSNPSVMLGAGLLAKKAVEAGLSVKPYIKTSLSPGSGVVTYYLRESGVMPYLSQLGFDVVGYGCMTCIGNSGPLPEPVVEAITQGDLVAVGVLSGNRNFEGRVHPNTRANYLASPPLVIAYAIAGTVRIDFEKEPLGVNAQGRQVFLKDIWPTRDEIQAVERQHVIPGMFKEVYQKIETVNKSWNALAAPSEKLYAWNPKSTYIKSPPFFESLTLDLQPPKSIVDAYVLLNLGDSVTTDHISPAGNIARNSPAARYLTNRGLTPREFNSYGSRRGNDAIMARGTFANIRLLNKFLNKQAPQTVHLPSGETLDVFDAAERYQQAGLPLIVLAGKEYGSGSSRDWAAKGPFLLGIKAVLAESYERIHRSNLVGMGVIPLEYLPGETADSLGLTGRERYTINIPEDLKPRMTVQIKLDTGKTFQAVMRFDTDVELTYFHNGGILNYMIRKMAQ
Experimental: (§1) Cells: Embryonic fibroblasts of 13-day old embryos were isolated from wild type, IRP1−/− mice and IRP2−/− mice as described in LaVaute et al. supra. Myc-tagged HEK 293 Tet-on cell line, in which IRP2 expression was inducible, was prepared and cultured as described Bourdon et al., Blood Cells Mol Dis, 31, 247-255 (2003). Erythroblasts were harvested from bone marrow and purified as described in Cooperman et al., Blood, 106, 1084-1091 (2005).
Aconitase assay: Aconitase activity gels for human lysates were performed as described in Tong et al., infra, and aconitase activity gels for mouse lysate were performed with the following modifications. The gel was composed of a separating gel containing 6% acrylamide, 132 mM Tris base, 66 mM borate, 3.6 mM citrate, and a stacking gel containing 4% acrylamide, 66 mM Tris base, 33 mM borate, 3.6 mM citrate. The running buffer contains 25 mM Tris pH 8.3, 96 mM glycine, and 3.6 mM citrate. Electrophoresis were carried out at 170 V at 4° C. Spectral aconitase activity was measured by following the method of Fillebeen et al., infra, using cis-aconitate as the substrate.
To confirm that nitroxide radicals activate IRP1 binding by disassembly of the iron-sulfur cluster, we performed in-gel aconitase assays to determine whether Tempo1 decreased the activity of cytosolic aconitase. […] The band that represented the cytosolic aconitase was readily identified by its absence in lysates from IRP1−/− cells. […]
(§2) To determine whether the effect of Tempo1 on IRP1 activity was kinetically consistent with oxidative disassembly of the iron sulfur cluster, the effect of Tempo1 on aconitase activity was compared to that of the iron chelator, deferiprone (DFO), which activates IRE-binding activity of IRP1 by limiting de novo synthesis and repair of the iron sulfur cluster in IRP1. […] Recovery of aconitase activity was assessed in wild type and IRP2−/− cells.

IRP1 [1] = target: T2, IRP1 (Mus musculus, UniProt P28271); assay: Gel-shift of IRP1 in wild type and IRP2−/− mouse embryonic fibroblasts after Tempo1 or DFO and washout; type: cell-based; parameters: Embryonic fibroblasts of 13-day old embryos were isolated from wild type, IRP1−/− mice and IRP2−/− mice; endogenous in cells; host or cells: mouse embryonic fibroblasts (wild type and IRP2−/−); conditions: wild type and IRP2−/− mouse embryonic fibroblasts treated 16 hours
T2 sequence (P28271 1-889): T1 sequence (P28271 1-889)
Experimental: as §1
(§3) RNA mobility shift assays: Gel retardation assays were performed as described in Meyron-Holtz et al., EMBO J, 23, 386-395 (2004). Tissue lysates were prepared in an anaerobic chamber as described above in oxygen-depleted lysis buffer containing 10 mM HEPES (pH 7.2), 3 mM MgC12, 40 mM KCl, 5% glycerol, 0.2% Nonidet P-40, 5 mM DTT, 1 mM AEBSF, 10 μg/ml. Leupeptin and complete TM EDTA free protease inhibitor cocktail (Roche Applied Science, Indiana). Lysate (x μl) containing 10 μg of total protein was added to (12.5−x) μl of bandshift buffer containing 25 mM Tris-HCl (pH 7.5) and 40 mM KCl. The samples were incubated for 5 min at room temperature (RT) with 12.5 μl of a reaction cocktail containing 20% glycerol, 0.2 U/μl Super RNAsine (Ambion, Tex.), 0.6 μg/μl yeast t-RNA, 5 mM DTT and 20 nM 32P-labelled IRE from human ferritin H-chain gene in 25 mM Tris-HCl (pH 7.5) and 40 mM KCl. A measure of 20 μl of this reaction mixture was loaded into a 10% acrylamide/TBE gel, which was run at 200 V for 2.15 h, and then the gel was fixed, dried and exposed for autoradiography.
as §2

IRP1 [2] = target: T2, IRP1; assay: Gel-shift of brain lysates treated with β-mercaptoethanol; type: biochemical, mice; parameters: Lysates made from various brain regions of IRP2−/− mice; from tissue; host or cells: mouse brain (cerebellum, forebrain, brain-stem) lysates; conditions: FIG. 7a
Experimental: Tissue and lysate preparation: Animals were euthanized and tissues were frozen in liquid nitrogen immediately after harvesting, and stored at −80° C. under argon. Experiments were performed on tissues that were pulverized in liquid N2-cooled mortars in an anaerobic chamber, and then lysed in lysis buffer that was deaerated by cyclic freezethaw and air-removal with argon. Nuclei and debris were removed by centrifugation. Preparations of lysates for assays of IRP1 activity, western blotting, carbonyl assay and protein analysis were performed anaerobically.
RNA mobility shift assays: Gel retardation assays were performed as described in Meyron-Holtz et al., EMBO J, 23, 386-395 (2004). Tissue lysates were prepared in an anaerobic chamber as described above in oxygen-depleted lysis buffer containing 10 mM HEPES (pH 7.2), 3 mM MgC12, 40 mM KCl, 5% glycerol, 0.2% Nonidet P-40, 5 mM DTT, 1 mM AEBSF, 10 μg/ml. Leupeptin and complete TM EDTA free protease inhibitor cocktail (Roche Applied Science, Indiana). Lysate (x μl) containing 10 μg of total protein was added to (12.5−x) μl of bandshift buffer containing 25 mM Tris-HCl (pH 7.5) and 40 mM KCl. […]

IRP1 [3] = target: T2, IRP1; assay: Gel-shift of erythroblasts treated with β-mercaptoethanol; type: biochemical; parameters: Lysates made from various brain regions of IRP2−/− mice; from tissue; host or cells: mouse brain (cerebellum, forebrain, brain-stem) lysates; conditions: erythroblasts from wild type mice, high concentrations
Experimental: as §1
as §3, with “A measure of 20 μl of this reaction mixture was loaded into a 10% acrylamide/TBE gel, which was run at 200 V for 2.15 h, and then the gel was fixed, dried and exposed for autoradiography.” left out

recovery of cytosolic aconitase activity (cytosolic aconitase)	IRE-binding activity of IRP1 (IRP1 [1])	Compound	IRE binding activity recruited (IRP1 [2])	additional IRE binding activity of IRP1 (IRP1 [3])
little recovery	activated	Cc1c(O)c(=O)ccn1C [DFO, deferiprone, reference compound]	–	–
–	–	OCCS [β-mercaptoethanol]	significant increases	did not activate additional
